Measured values: article PMC4102531, “Pharmacologic Inhibition of Sphingomyelin Synthase (SMS) Activity Reduces Apolipoprotein-B Secretion from Hepatocytes and Attenuates Endotoxin-Mediated Macrophage Inflammation” (PLoS ONE, 2014)

Molecular target: T1, SMS2 (sphingomyelin synthase 2) (Mus musculus, UniProt Q9D4B1)
T1 construct: gene Sgms2; native enzyme in liver homogenate of SMS1 KO mice
T1 sequence (Q9D4B1 1-365): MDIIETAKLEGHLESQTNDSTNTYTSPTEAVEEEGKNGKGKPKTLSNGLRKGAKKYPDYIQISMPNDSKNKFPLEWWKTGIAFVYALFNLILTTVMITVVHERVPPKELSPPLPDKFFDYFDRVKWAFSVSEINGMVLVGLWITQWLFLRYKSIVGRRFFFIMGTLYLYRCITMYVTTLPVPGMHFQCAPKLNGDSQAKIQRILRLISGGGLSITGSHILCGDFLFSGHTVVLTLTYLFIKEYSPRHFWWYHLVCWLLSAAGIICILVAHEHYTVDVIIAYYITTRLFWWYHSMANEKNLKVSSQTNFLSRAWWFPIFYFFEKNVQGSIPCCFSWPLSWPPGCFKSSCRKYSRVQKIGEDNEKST
Test: SMS activity assay in SMS1 KO mouse liver homogenate
Assay type: cell-based

Structure (SMILES): N#CC(Nc1ccccc1)c1ccccc1OCc1ccccc1 (stereo not shown) [Dy105, 2-(2-(benzyloxy)phenyl)-2-(phenylamino) acetonitrile]
- SMS activity assay in SMS1 KO mouse liver homogenate: we found the compound can inhibit SMS2 but not SMS1 activity (Fig. 3A and B) in the liver
